Results taken from patent US6897228B2, “Pyridoxine and pyridoxal analogues: new uses” (Medicure International Inc., priority 2000, dated 2005).

Assays:
[1] = tested on: Platelets from HIT patients; assay: Heparin-induced aggregation and ATP release of platelets from HIT patients; assay type: cell-based, human
Source text: XL was capable of inhibiting the aggregation of platelets drawn from patients known to have heparin induced thrombocytopenia (HIT). Platelets from HIT patients were challenged with 0.5 U/ml concentration of heparin in the presence and absence of drug. […] XL is useful as an antiplatelet treatment for HIT patients who cannot be administered heparin due to the immune reaction with heparin that leads to aggregation rather than thrombolysis.
Platelets were drawn from HIT patients and challenged with heparin to a final concentration of 0.5 U/ml of low molecular weight heparin, in the presence and absence of the drug. […] ATP was detected in a lumi aggregometor (Chronolog Corp.). A luciferin-luciferase mixture was used to detect ATP release. The luciferin-luciferase mixture was previously calibrated to a known amount of ATP. Thus a spike in ATP release indicated platelet aggregation. As shown by the data, HIT patents have a large amplitude release when there is no XL compound present. When XL compound is present it inhibits this characteristic release of ATP.
Low heparin is low molecular weight heparin and high heparin is unfractionated heparin. The presence of low molecular weight heparin will cause platelet aggregation. All samples were treated with a constant final concentration of heparin; 0.5 U/ml—low and 100 U/ml high. HIT causes platelet aggregation in the Low Concentration of Heparin only, as well as a ration of >5.0 when comparing the Low/High concentration of Heparin.

[2] = tested on: male Wistar rats, LAD occlusion and reperfusion; assay: Rat cardiac ischemia reperfusion model; assay type: in vivo
Description: Seventy-nine male Wistar rats (200-300 g, Tuck, Rayleigh, Essex, U.K.) were anesthetized with thiopentone sodium (Intraval®, 120 mg/kg i.p.; Rhone-Merrieux, Essex, U.K.). The rats were tracheotomized, intubated and ventilated with a Harvard ventilator (70 strokes/min, tidal volume: 8-10 ml/kg, inspiratory oxygen concentration: 30%). Body temperature was maintained at 38±1° C. The right carotid artery was cannulated and connected to a pressure transducer (Spectramed, P23XL) to monitor mean arterial blood pressure (MAP) and heart rate (HR), which were continuously recorded on a 4-channel Grass 7D polygraph recorder (Grass, Mass., U.S.A.). The right jugular vein was cannulated for the administration of drugs. Subsequently, a lateral thoracotomy was performed and the heart was suspended in a temporary pericardial cradle. A snare occluder was placed around the left anterior descending coronary artery (LAD). After completion of the surgical procedure the animals were allowed to stabilize for 30 min before LAD ligation. The coronary artery was occluded at time 0 by tightening of the occluder. After 25 min of acute myocardial ischemia, the occluder was re-opened to allow the reperfusion for 2 h. Following the 2 h reperfusion period, the coronary artery was re-occluded and Evans Blue dye (1 ml of 2% w/v) was injected into the left ventricle, via the right carotid artery cannula, to distinguish between perfused and non-perfused area at risk (AR) sections of the heart. The Evans Blue solution stains the perfused myocardium, while the occluded vascular bed remains uncolored. The animals were killed with an overdose of anesthetic and the heart excised. It was sectioned into slices of 3-4 mm, the right ventricular wall was removed, and the AR (pink) was separated from the non-ischemic (blue) area. The AR was cut into small pieces and incubated with p-nitroblue tetrazolium (NBT, 0.5 mg/ml) for 40 min at 37° C. In the presence of intact dehydrogenase enzyme systems (viable myocardium), nitro-blue tetrazolium (NBT) forms a dark blue formazan, whilst areas of necrosis lack dehydrogenase activity and therefore fail to stain. Pieces were separated according to staining and weighed to determine the infarct size as a percentage of the weight of the AR.
The following experimental groups were studied: • (1) Sham-operation (no occlusion of the LAD) plus administration of saline (Sham-Saline, 1 ml/kg i.v. n=9). • (2) LAD-occlusion (25 min) and reperfusion (2 h) plus administration of saline (myocardial infarction (“MI”)-Saline; 1 ml/kg i.v. bolus, 5 min prior to LAD occlusion) (n=10). • (3) LAD-occlusion and reperfusion plus administration of XL (25 mg/kg i.v. bolus at 5 min prior to LAD occlusion) (n=10).
All data were expressed as mean±s.e.mean of n observations, where n represented the number of animals studied. Infarct size was analyzed by 1-factorial ANOVA, followed by a Bonferroni's post hoc test for multiple comparisons. Hemodynamic data were analyzed by 2-way ANOVA followed by a Bonferroni's test. A P-value of less than 0.05 was considered to be statistically significant (when compared to Ml-Saline).

[3] = tested on: platelets (platelet rich plasma); assay: Inhibition of platelet aggregation (aggregometer, platelet rich plasma); assay type: cell-based; conditions: for Extent of aggregation as a percentage amplitude, 1 μg/mL collagen: agonist 1 μg/mL collagen; for Extent of aggregation as a percentage amplitude, 4 μM ADP: agonist 4 μM ADP; for Extent of aggregation as a percentage amplitude, 5 μg/mL collagen: agonist 5 μg/mL collagen; for Extent of aggregation as a percentage amplitude, 12 μM TRAP: agonist 12 μM TRAP
Description: Platelet rich plasma (PRP) was obtained by drawing whole blood into sodium citrate tubes (3.2%) and centrifuging at 700 rpm for 10 minutes. Platelet poor plasma (PPP) was obtained by centrifuging the remainder of the sample ntil the platelets were removed (3200 rpm for 10 minutes). The PRP was adjusted to a count of 280×10^9/L using a mixture of PRP and PPP. The incubation mixture consisted of 200 μL of platelets and 25 μL of the appropriate compound (18 mM stock for a final concentration of 2 mM and 4.5 mM stock for a final concentration of 500 μM), rendering an approximate final platelet count in the incubation mixture of 250×10^9/L. After incubation (30 minutes at room temperature, the cuvettes were incubated for 3 minutes at 37° C., transferred to the mixing wells and after the baselines transmittances were measured in an aggregometer (Chrono-Log 4), 25 μL of agonist was added to give a final concentration of 4 μM ADP, 1 μg/mL collagen, 5 μg/mL collagen or 12 μM thrombin receptor activating peptide (TRAP). Final transmittances were then measured in the aggregometer (lower percent transmittance represents higher aggregation). […] Table 24-1 gives the results of the extent of aggregation for several compounds as percentage amplitude read directly from the aggregometer.

[4] = 25 mg/kg i.v. bolus t = −5 mins, Baseline
[5] = 25 mg/kg i.v. bolus, Occlusion 15 mins
[6] = 25 mg/kg i.v. bolus, Occlusion 25 mins
[7] = 25 mg/kg i.v. bolus, Reperfusion 60 mins
[8] = 25 mg/kg i.v. bolus, Reperfusion 120 mins

## Cc1ncc(CNc2ccc(-c3ccc(C(=N)N)cc3)cc2)c(CO)c1O [Compound XL]
[1]; 500 micromolar
  effects of heparin induced thrombocytopenia (HIT): completely suppress
[1]; 500 micromolar, 0.5 U/ml heparin
  aggregation of platelets from HIT patients: completely suppress
[1]; Patient 1, 500 μM, 0.5 U/ml low heparin, without drug 363
  Amplitude of ATP release spike (low Heparin): 14
[1]; Patient 1, 500 μM, without drug 42.4, HIT ratio >5.0
  Ratio of Low/High Heparin: 1.9
[1]; Patient 1, 500 μM, without drug Present
  Aggregation (Low Heparin): Absent
[1]; Patient 1, 2 mM
  Aggregation (Low Heparin): Absent
  Amplitude of ATP release spike (low Heparin): 28
  Ratio of Low/High Heparin: 2.7
[1]; Patient 2, 500 μM, without drug 37.6
  Ratio of Low/High Heparin: 1.6
[1]; Patient 2, 500 μM, without drug 286
  Amplitude of ATP release spike (low Heparin): 11
[1]; Patient 2, 500 μM, without drug Present
  Aggregation (Low Heparin): Absent
[1]; Patient 2, 2 mM
  Aggregation (Low Heparin): Absent
  Amplitude of ATP release spike (low Heparin): 12
  Ratio of Low/High Heparin: 1.6
[1]; heparin challenge, lumi aggregometer
  characteristic release of ATP of HIT platelets: inhibits
[2]; [4]
  HR (heart rate): 443 ± 9 beats per min
  MAP (mean arterial pressure): 121 ± 7 mmHg
  PRI (pressure rate index): 54 ± 3 mmHg/min · 10^−3
[2]; 25 mg/kg i.v. bolus, 5 minutes before regional ischemia, P<0.05, MI-Saline 48±3% of the AR
  infarct size (percentage of the area at risk): significant reduction
[2]; [5]
  HR (heart rate): 435 ± 11 beats per min
  MAP (mean arterial pressure): 119 ± 6 mmHg
  PRI (pressure rate index): 52 ± 3 mmHg/min · 10^−3
[2]; [6]
  HR (heart rate): 460 ± 10 beats per min
  MAP (mean arterial pressure): 118 ± 6 mmHg
  PRI (pressure rate index): 55 ± 3 mmHg/min · 10^−3
[2]; [7]
  HR (heart rate): 412 ± 10 beats per min
  MAP (mean arterial pressure): 89 ± 8 mmHg
  PRI (pressure rate index): 36 ± 3 mmHg/min · 10^−3
[2]; [8]
  HR (heart rate): 414 ± 13 beats per min
  MAP (mean arterial pressure): 70 ± 7 mmHg
  PRI (pressure rate index): 29 ± 3 mmHg/min · 10^−3
[2]; 25 mg/kg i.v., P>0.05
  fall in MAP compared with MI-rats treated with Saline: similar
  fall in PRI compared with MI-rats treated with Saline: similar
[2]; rats subjected to regional myocardial ischemia and reperfusion, P>0.05
  effect on HR: no significant effect
[3]; compound 500 μM
  Extent of aggregation as a percentage amplitude, 1 μg/mL collagen: 4%
  Extent of aggregation as a percentage amplitude, 4 μM ADP: 9%
  Extent of aggregation as a percentage amplitude, 5 μg/mL collagen: 52%
  Extent of aggregation as a percentage amplitude, 12 μM TRAP: 3%
[3]; compound 2 mM
  Extent of aggregation as a percentage amplitude, 1 μg/mL collagen: 4%
  Extent of aggregation as a percentage amplitude, 4 μM ADP: 4%
  Extent of aggregation as a percentage amplitude, 5 μg/mL collagen: 5%
  Extent of aggregation as a percentage amplitude, 12 μM TRAP: 4%
